Data: patent US9254251B2, “Benzoic acid amide compound” (AMOREPACIFIC CORPORATION, priority 2011, dated 2016)

What was measured:
[1] = system: B16F10 melanoma cells; test: Effect of reducing melanin production in melanocytes (Dooley's method); type: cell-based; conditions: B16-F10, 120 h; Mouse-derived B16F10 melanoma cells; melanin extracted after 5 days, absorbance at 405 nm; read-out: IC50 (concentration required to reduce melanin production in melanocytes to half)
Procedure: The effect of reducing melanin production of the benzamide derivative compounds prepared in Examples in melanocytes was measured according to the Dooley's method. Mouse-derived B16F10 melanoma cells acquired from the Korean Cell Line Bank were used. DMEM (Cat No. 11995), FBS (Cat No. 16000-044), and antibiotic and antifungal agents (Cat No. 15240-062) necessary for cell culturing were purchased from Invitrogen (GIBCO). The cells were cultured under the condition of 37° C. and 5% CO2. The cultured B16F10 cells were detached using 0.05% trypsin-EDTA and seeded onto a 48-well plate with the same cell number (1×10^4 cells/well). From the next day, the culture medium was replaced with one containing 10 ppm of the compound of Examples for three consecutive days. Kojic acid and rucinol were used as positive control. After 5 days, melanin was extracted from the cells by treating with 1 N NaOH at 60° C. for 2 hours, which was quantitated by measuring absorbance at 405 nm.

[2] = target: mushroom tyrosinase; test: Effect of inhibiting mushroom tyrosinase activity (method of Vanni, et al.); type: biochemical; conditions: read-out: IC50 (concentration required to inhibit tyrosinase activity to 50%); mushroom tyrosinase 10 units, tyrosine substrate, 37° C. for 10 minutes, pH 6.8, absorbance at 480 nm
Procedure: The effect of inhibiting mushroom tyrosinase activity of the benzamide derivative compounds of Examples was measured according to the method of Vanni, et al. Specifically, 49.5 μL of 0.1 M potassium phosphate buffer (pH 6.8), 45 μL of distilled water (DW), 0.5 μL (10 units) of mushroom tyrosinase (SIGMAT-7755) and 5 μL of the benzamide derivative compound of Examples were mixed and reacted at 37° C. for 10 minutes by mixing with 50 μL of 0.3 mg/mL tyrosine aqueous solution in a 96-well plate (total volume: 150 μL).

| Structure (SMILES) | IC50 [1] [nM] | IC50 [2] [nM] |
| --- | --- | --- |
| O=C(NCCc1ccc(O)c(O)c1)c1cc(C23CC4CC(CC(C4)C2)C3)c(O)cc1O [Example 1, 5-adamantan-1-yl-N-[2-(3,4-dihydroxyphenyl)-ethyl]-2,4-dihydroxybenzamide] | 1200 | – |
| O=C(NCCc1ccc(O)cc1)c1cc(C23CC4CC(CC(C4)C2)C3)c(O)cc1O [Example 5, 5-adamantan-1-yl-2,4-dihydroxy-N-[2-(4-hydroxyphenyl)-ethyl]benzamide] | 1100 | – |
| O=C(NCc1ccc(O)cc1O)c1cc(C23CC4CC(CC(C4)C2)C3)c(O)cc1O [Example 8, 5-adamantan-1-yl-N-(2,4-dihydroxybenzyl)-2,4-dihydroxybenzamide] | 1200 | 1100 |
| COc1cc(O)c(C(=O)NCc2ccc(O)cc2O)cc1C12CC3CC(CC(C3)C1)C2 [Example 9, 5-adamantan-1-yl-N-(2,4-dihydroxybenzyl)-2-hydroxy-4-methoxybenzamide] | 1800 | 800 |
| COc1cc(OC)c(C23CC4CC(CC(C4)C2)C3)cc1C(=O)NCc1ccc(O)cc1O [Example 10, 5-adamantan-1-yl-N-(2,4-dihydroxybenzyl)-2,4-dimethoxybenzamide] | 1100 | 900 |
| COc1ccc(C(=O)NCc2ccc(O)c(O)c2)cc1C12CC3CC(CC(C3)C1)C2 [Example 12, 3-adamantan-1-yl-N-(3,4-dihydroxybenzyl)-4-methoxybenzamide] | 1900 | – |
| O=C(NCCc1ccc(O)c(O)c1)c1ccc(O)c(C23CC4CC(CC(C4)C2)C3)c1 [Example 13, 3-adamantan-1-yl-N-[2-(3,4-dihydroxyphenyl)-ethyl]-4-hydroxybenzamide] | 3000 | – |
| O=C(NCc1ccc(O)cc1O)c1ccc(O)c(C23CC4CC(CC(C4)C2)C3)c1 [Example 17, 3-adamantan-1-yl-N-(2,4-dihydroxybenzyl)-4-hydroxybenzamide] | – | 900 |
| COc1ccc(C(=O)NCc2ccc(O)cc2O)cc1C12CC3CC(CC(C3)C1)C2 [Example 18, 3-adamantan-1-yl-N-(2,4-dihydroxybenzyl)-4-methoxybenzamide] | – | 1400 |
| O=C(NCc1cc(O)ccc1O)c1cc(C23CC4CC(CC(C4)C2)C3)c(O)cc1O [Example 20, 5-adamantan-1-yl-N-(2,5-dihydroxybenzyl)-2,4-dihydroxybenzamide] | 2900 | – |
| COc1cc(CNC(=O)c2cc(C34CC5CC(CC(C5)C3)C4)c(O)cc2O)cc(OC)c1 [Example 21, 5-adamantan-1-yl-N-(3,5-dimethoxybenzyl)-2,4-dihydroxybenzamide] | 2000 | – |
| O=c1cc(CO)occ1O [Kojic acid, reference compound] | 300000 | – |
| CCCCc1ccc(O)cc1O [Rucinol, reference compound] | 10000 | 1300 |
